Test results: patent US20090318561A1 (MUTUAL PHARMACEUTICAL COMPANY, INC., priority 2008, published 2009)
Several values for one entry are separate records, joined by “and”; a condition that tells them apart may be missing. Identical values can stand only once. Like-named read-outs stand apart in the source and are kept apart here.

Legend:
CYP1A2 mRNA [1] = experiment: Quantitative RT-PCR analysis of CYP1A2 mRNA content in primary human hepatocytes; conditions: 3-MC 2 μM; for Relative Fold mRNA Content: single sample
CYP1A2 mRNA [2] = conditions: human, 3 days

| Percent of Adjusted Positive Control (CYP1A2 mRNA [2]; 1 nM) [%] | Percent of Adjusted Positive Control (CYP1A2 mRNA [2]; 10 nM) [%] | Percent of Adjusted Positive Control (CYP1A2 mRNA [2]; 100 nM) [%] | Structure (SMILES) | Mean Relative Fold mRNA Content (CYP1A2 mRNA [1]; lot Hu485) | Percent of Adjusted Positive Control (CYP1A2 mRNA [1]; lot Hu485) [%] | Relative Fold mRNA Content (CYP1A2 mRNA [1]; lot Hu485) | Mean Relative Fold mRNA Content (CYP1A2 mRNA [1]; lot Hu503) | Percent of Positive Control (CYP1A2 mRNA [1]; lot Hu503) [%] | Relative Fold mRNA Content (CYP1A2 mRNA [1]; lot Hu503) | Mean Relative Fold mRNA Content (CYP1A2 mRNA [1]; lot Hu4021) | Percent of Positive Control (CYP1A2 mRNA [1]; lot Hu4021) [%] | Relative Fold mRNA Content (CYP1A2 mRNA [1]; lot Hu4021) |
| --- | --- | --- | --- | --- | --- | --- | --- | --- | --- | --- | --- | --- |
| – | – | – | Cc1ccc2cc3c(ccc4ccccc43)c3c2c1CC3 [3-MC, 3-methylcholanthrene] | 396 | 100.00 | 361 and 445 and 380 | 161 | 100.00 | 167 and 137 and 180 | 71.9 | 100.00 | 68.7 and 69.1 and 77.8 |
| 1.23 | 1.18 | 0.70 | CC[C@]1(O)C[C@@H]2CN(CCc3c([nH]c4ccccc34)[C@@](C(=O)OC)(c3cc4c(cc3OC)N(C)[C@H]3[C@@](O)(C(=O)OC)[C@H](OC(C)=O)[C@]5(CC)C=CCN6CC[C@]43[C@@H]65)C2)C1 [vinblastine] | – | – | – | – | – | – | – | – | – |
